# Experimental data published in publication PMC12014616, “HPLC-UV method development and validation for anticancer drug sorafenib and the co-prescribed drug dexamethasone: application to pharmacokinetic evaluation of sorafenib nanoformulations” (Frontiers in Pharmacology, 2025).
# Assay: Stability of sorafenib-spiked plasma samples at different storage conditions
# Format: physicochemical
# Method: The plasma was separated from the blood by centrifugation at 8,000 rpm for 10 min at […]. The plasma (200 µL) was spiked with sorafenib, dexamethasone, and IS, the protein was precipitated with acetonitrile, and the extraction of the analytes was carried out with ACN, MeOH, and DCM. The following plan was applied to obtain the sample (Figure 2), and a sample (20 µL) was applied for analysis.
# Linearity was confirmed through least squares regression, while sensitivity was measured on the basis of the S/N ratio of HPLC software. The S/N ratios are 3 and 10 for LOD and LOQ, respectively. Similar robustness was tested through planned changes in parameters while stability studies were performed at different storage conditions (‒20°C, 4°C, and 25°C) for a month using Equation 3. % Stability=St/So X 100, (3) where St indicates stability at time t, and S0 indicates stability at time 0.
structure (smiles),measurement,setting,value
"CNC(=O)c1cc(Oc2ccc(NC(=O)Nc3ccc(Cl)c(C(F)(F)F)c3)cc2)ccn1 [sorafenib, Sorafenib]",% Recovery (Mean ± SD),"4°C, 6 hours, 250 ng/mL",98.13 ± 0.19; 0.19%
same,% Recovery (Mean ± SD),"4°C, 6 hours, 500 ng/mL",98.29 ± 0.65; 0.66%
same,% Recovery (Mean ± SD),"4°C, 6 hours, 1,000 ng/mL",98.91 ± 0.91; 0.92%
same,% Recovery (Mean ± SD),"4°C, 24 hours, 250 ng/mL",98.11 ± 0.38; 0.77%
same,% Recovery (Mean ± SD),"4°C, 24 hours, 500 ng/mL",98.30 ± 0.67; 0.68%
same,% Recovery (Mean ± SD),"4°C, 24 hours, 1,000 ng/mL",98.05 ± 0.68; 0.69%
same,% Recovery (Mean ± SD),"4°C, 72 hours, 250 ng/mL",97.36 ± 0.85; 0.87%
same,% Recovery (Mean ± SD),"4°C, 72 hours, 500 ng/mL",96.99 ± 0.32; 0.33%
same,% Recovery (Mean ± SD),"4°C, 72 hours, 1,000 ng/mL",96.93 ± 0.48; 0.50%
same,% Recovery (Mean ± SD),"25°C, 0 hours, 250 ng/mL",98.15 ± 0.44; 0.45%
same,% Recovery (Mean ± SD),"25°C, 0 hours, 500 ng/mL",98.25 ± 0.55; 0.56%
same,% Recovery (Mean ± SD),"25°C, 0 hours, 1,000 ng/mL",98.55 ± 0.19; 0.19%
same,% Recovery (Mean ± SD),"25°C, 6 hours, 250 ng/mL",97.45 ± 0.34; 0.35%
same,% Recovery (Mean ± SD),"25°C, 6 hours, 500 ng/mL",97.39 ± 0.12; 0.12%
same,% Recovery (Mean ± SD),"25°C, 6 hours, 1,000 ng/mL",98.05 ± 0.15; 0.15%
same,% Recovery (Mean ± SD),"25°C, 24 hours, 250 ng/mL",95.51 ± 0.53; 0.55%
same,% Recovery (Mean ± SD),"25°C, 24 hours, 500 ng/mL",96.05 ± 0.41; 0.43%
same,% Recovery (Mean ± SD),"25°C, 24 hours, 1,000 ng/mL",97.55 ± 0.26; 0.27%
same,% Recovery (Mean ± SD),"25°C, 72 hours, 250 ng/mL",85.90 ± 0.50; 0.58%
same,% Recovery (Mean ± SD),"25°C, 72 hours, 500 ng/mL",84.95 ± 0.34; 0.40%
same,% Recovery (Mean ± SD),"25°C, 72 hours, 1,000 ng/mL",88.25 ± 0.74; 0.84%
same,% Recovery (Mean ± SD),"freeze and thaw 3x, 250 ng/mL",96.41 ± 0.17; 0.18%
same,% Recovery (Mean ± SD),"freeze and thaw 3x, 500 ng/mL",97.05 ± 0.22; 0.23%
same,% Recovery (Mean ± SD),"freeze and thaw 3x, 1,000 ng/mL",98.00 ± 0.87; 0.89%
